Experimental data taken from patent publication US20090298825A1, “Bicycloheteroaryl Compounds as P2x7 Modulators and Uses Thereof” (priority 2006, published 2009).

Target: T1, P2X7 receptor (Homo sapiens, UniProt Q99572)
T1 construct: endogenous in cells; host or cells: THP-1 cells differentiated with LPS and IFN-γ
T1 sequence (Q99572 1-595): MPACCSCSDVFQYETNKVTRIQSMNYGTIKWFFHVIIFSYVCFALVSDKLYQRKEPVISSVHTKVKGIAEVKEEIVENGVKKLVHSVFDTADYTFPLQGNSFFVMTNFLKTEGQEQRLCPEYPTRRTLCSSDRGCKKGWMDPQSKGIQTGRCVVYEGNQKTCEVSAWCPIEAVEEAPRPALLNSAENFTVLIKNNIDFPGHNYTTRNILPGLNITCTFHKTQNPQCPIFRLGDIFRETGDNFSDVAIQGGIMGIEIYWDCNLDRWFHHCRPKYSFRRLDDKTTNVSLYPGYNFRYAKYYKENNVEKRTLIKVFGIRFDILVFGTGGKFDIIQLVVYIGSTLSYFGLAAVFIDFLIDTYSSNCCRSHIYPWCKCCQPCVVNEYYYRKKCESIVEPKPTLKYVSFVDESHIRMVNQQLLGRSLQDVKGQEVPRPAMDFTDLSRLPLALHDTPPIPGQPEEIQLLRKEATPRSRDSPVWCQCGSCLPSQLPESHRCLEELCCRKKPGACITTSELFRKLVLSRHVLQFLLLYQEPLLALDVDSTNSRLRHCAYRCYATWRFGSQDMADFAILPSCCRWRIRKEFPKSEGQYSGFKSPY
Experiment: IL-1β release assay in differentiated THP-1 cells stimulated with BzATP (Example 9)
Assay type: cell-based
Details: for inhibition at 0.3 µM: 0.3 μM concentration; for inhibition at 0.3 µM / inhibition at 0.1 µM: read-out: IL-1β % Inhib. @ 0.3 or 0.1 μM; for IC50: four parameter logistic fit, read-out: IL-1β IC50; for inhibition at 0.1 µM: 0.1 μM concentration
Experimental: The cells are then pretreated for 30 minutes with the compound of interest at the appropriate concentration in RPMI media containing 100 IU/mL penicillin, 100 ug/mL streptomycin. […] 30 uL of cell supernatant is then collected and IL-1β levels determined via ELISA (R&D systems Cat. # HSLB50) according to manufacturer's recommendations using the Tecan Safire plate reader. Background adjusted IL-1β levels of drug treated and non-treated cells are used to calculate the percent inhibition.
The compounds set forth in Table 1 were tested for activity in a cellular model as described herein. […] Measurements were made and IC50 values, presented in Table 2, below, were determined by fitting the data to a four parameter logistic equation using GraphPad Prism software (GraphPad Software, Inc). The equation may be expressed by the following formula:
Y=Bottom+(Top-Bottom)/(1+10̂((Log EC50−X)*HillSlope))
Where X is the logarithm of concentration, Y is the response and Y starts at Bottom and goes to Top with a sigmoid shape.

SMILES	inhibition at 0.3 µM [%]	IC50 [nM]	inhibition at 0.1 µM [%]
CC12CC3CC(C)(C1)CC(CC(=O)Nc1cccc4c(=O)n(-c5cccnc5)ccc14)(C3)C2 [ID 701]	> 76	3.22	–
COc1ccc(-n2ccc3c(NC(=O)CC45CC6CC(CC(C6)C4)C5)cccc3c2=O)cn1 [ID 705]	> 76	2.4	–
O=C(CC12CC3CC(CC(C3)C1)C2)Nc1cccc2c(=O)n(-c3cnc4ccccc4c3)ccc12 [ID 706]	> 76	58	–
O=C(CC12CC3CC(CC(C3)C1)C2)Nc1cccc2c(=O)n(-c3ccc(Sc4cc(Cl)ccc4Cl)nc3)ccc12 [ID 707]	> 76	1.63	–
Cc1ccc(Oc2ncccc2-n2ccc3c(NC(=O)CC45CC6CC(CC(C6)C4)C5)cccc3c2=O)c2c1CCC2 [ID 708]	> 76	26.2	–
O=C(CC12CC3CC(CC(C3)C1)C2)Nc1cccc2c(=O)n(-c3ccc(N4CCOCC4)nc3)ccc12 [ID 709]	> 76	25.6	–
O=C(CC12CC3CC(CC(C3)C1)C2)Nc1cccc2c(=O)n(-c3ccc(Oc4ccccc4)nc3)ccc12 [ID 711]	> 76	0.723	–
O=C(CC12CC3CC(CC(C3)C1)C2)Nc1cccc2c(=O)n(-c3cccnc3N3CCOCC3)ccc12 [ID 712]	> 76	0.384	–
CCOc1cccc(C(=O)Nc2cccc3c(=O)n(-c4cc(C)on4)ccc23)c1 [ID 717]	–	–	0 to 25
Cc1cc(-n2ccc3c(NC(=O)CCc4ccccc4Cl)cccc3c2=O)no1 [ID 718]	–	–	0 to 25
Cc1cc(-n2ccc3c(NC(=O)c4ccccc4Cl)cccc3c2=O)no1 [ID 719]	–	–	0 to 25
Cc1cc(-n2ccc3c(NC(=O)c4ccccc4C)cccc3c2=O)no1 [ID 720]	–	–	0 to 25
Cc1cc(-n2ccc3c(NC(=O)c4cccc(C)c4C)cccc3c2=O)no1 [ID 721]	–	–	0 to 25
Cc1ccc(C)c(C(=O)Nc2cccc3c(=O)n(-c4cc(C)on4)ccc23)c1 [ID 722]	–	–	26 to 50
Cc1cccc(C(=O)Nc2cccc3c(=O)n(-c4cc(C)on4)ccc23)c1 [ID 723]	–	–	0 to 25
COc1ccccc1CCC(=O)Nc1cccc2c(=O)n(-c3cc(C)on3)ccc12 [ID 724]	–	–	0 to 25
COc1ccc(CCC(=O)Nc2cccc3c(=O)n(-c4cc(C)on4)ccc23)cc1 [ID 725]	–	–	0 to 25
COc1ccc(OC)c(CC(=O)Nc2cccc3c(=O)n(-c4cc(C)on4)ccc23)c1 [ID 728]	–	–	0 to 25

SMILES	inhibition at 0.3 µM [%]	IC50 [nM]	inhibition at 0.1 µM [%]
Cc1cccc(CC(=O)Nc2cccc3c(=O)n(-c4cc(C)on4)ccc23)c1 [ID 731]	–	–	0 to 25
COc1ccc(CC(=O)Nc2cccc3c(=O)n(-c4cc(C)on4)ccc23)cc1 [ID 732]	–	–	0 to 25
COc1ccc(CC(=O)Nc2cccc3c(=O)n(-c4cc(C)on4)ccc23)cc1C [ID 741]	–	–	0 to 25
Cc1cccc(CCC(=O)Nc2cccc3c(=O)n(-c4cc(C)on4)ccc23)c1 [ID 742]	–	–	0 to 25
COc1ccc(C(=O)Nc2cccc3c(=O)n(-c4cc(C)on4)ccc23)cc1C [ID 744]	–	–	0 to 25
Cc1ccc(CCC(=O)Nc2cccc3c(=O)n(-c4cc(C)on4)ccc23)c(C)c1 [ID 745]	–	–	0 to 25
CCOC(=O)N1CCC(n2ccc3c(NC(=O)c4ccc(OC)cc4C)cccc3c2=O)CC1 [ID 749]	–	–	0 to 25
CCOC(=O)N1CCC(n2ccc3c(NC(=O)[C@H]4CC[C@H](C)CC4)cccc3c2=O)CC1 [ID 750]	–	–	0 to 25
CCOC(=O)N1CCC(n2ccc3c(NC(=O)CCc4ccccc4C)cccc3c2=O)CC1 [ID 751]	–	–	0 to 25
CCOC(=O)N1CCC(n2ccc3c(NC(=O)c4ccc(-c5ccccc5)o4)cccc3c2=O)CC1 [ID 752]	–	–	0 to 25
CCOC(=O)N1CCC(n2ccc3c(NC(=O)Cc4c(C)cc(C)cc4C)cccc3c2=O)CC1 [ID 754]	–	–	0 to 25
CCOC(=O)N1CCC(n2ccc3c(NC(=O)Cc4cc(C)ccc4C)cccc3c2=O)CC1 [ID 755]	–	–	0 to 25
CCOC(=O)N1CCC(n2ccc3c(NC(=O)c4cccc(OCC)c4)cccc3c2=O)CC1 [ID 757]	–	–	0 to 25
CCOC(=O)N1CCC(n2ccc3c(NC(=O)CCc4ccccc4Cl)cccc3c2=O)CC1 [ID 758]	–	–	0 to 25
CCOC(=O)N1CCC(n2ccc3c(NC(=O)c4ccc(Cl)c(C)c4)cccc3c2=O)CC1 [ID 760]	–	–	0 to 25
CCOC(=O)N1CCC(n2ccc3c(NC(=O)c4ccccc4C)cccc3c2=O)CC1 [ID 764]	–	–	0 to 25
CCOC(=O)N1CCC(n2ccc3c(NC(=O)c4cccc(C)c4C)cccc3c2=O)CC1 [ID 765]	–	–	0 to 25

Second part, the molecule after the results:

inhibition at 0.3 µM [%]	IC50 [nM]	inhibition at 0.1 µM [%]	SMILES
> 76	0.177	–	Cc1ccncc1-n1ccc2c(NC(=O)CC34CC5CC(CC(C5)C3)C4)cccc2c1=O [ID 702]
> 76	13.2	–	Cc1ccc(-n2ccc3c(NC(=O)CC45CC6CC(CC(C6)C4)C5)cccc3c2=O)c(C)n1 [ID 703]
> 76	0.322	–	O=C(CC12CC3CC(CC(C3)C1)C2)Nc1cccc2c(=O)n(-c3ccc(Oc4ccc(Br)cc4)nc3)ccc12 [ID 704]
> 76	0.246	–	COc1ncccc1-n1ccc2c(NC(=O)CC34CC5CC(CC(C5)C3)C4)cccc2c1=O [ID 710]
> 76	10.7	–	O=C(CC12CC3CC(CC(C3)C1)C2)Nc1cccc2c(=O)n(-c3ccc(Oc4c(Cl)cccc4Cl)nc3)ccc12 [ID 713]
> 76	4.09	–	O=C(CC12CC3CC(CC(C3)C1)C2)Nc1cccc2c(=O)n(-c3cccnc3Oc3ccccc3F)ccc12 [ID 714]
–	–	0 to 25	Cc1ccc(C)c(CC(=O)Nc2cccc3c(=O)n(-c4cc(C)on4)ccc23)c1 [ID 716]
–	–	0 to 25	Cc1cc(-n2ccc3c(NC(=O)Cc4ccccc4F)cccc3c2=O)no1 [ID 726]
–	–	0 to 25	COc1ccccc1CC(=O)Nc1cccc2c(=O)n(-c3cc(C)on3)ccc12 [ID 727]
–	–	0 to 25	Cc1cc(-n2ccc3c(NC(=O)Cc4ccccc4C)cccc3c2=O)no1 [ID 729]
–	–	0 to 25	COc1cccc(CC(=O)Nc2cccc3c(=O)n(-c4cc(C)on4)ccc23)c1 [ID 730]
–	–	0 to 25	Cc1ccc(CC(=O)Nc2cccc3c(=O)n(-c4cc(C)on4)ccc23)cc1 [ID 733]
–	–	0 to 25	Cc1cc(-n2ccc3c(NC(=O)c4cc5ccccc5o4)cccc3c2=O)no1 [ID 734]
–	–	> 76	Cc1cc(-n2ccc3c(NC(=O)CC4CC5CCC4C5)cccc3c2=O)no1 (stereo not drawn) [ID 735]
–	–	0 to 25	Cc1cc(-n2ccc3c(NC(=O)c4cccc5c4OCCO5)cccc3c2=O)no1 [ID 736]
–	–	0 to 25	Cc1cc(C)cc(CC(=O)Nc2cccc3c(=O)n(-c4cc(C)on4)ccc23)c1 [ID 737]
–	–	0 to 25	Cc1cc(-n2ccc3c(NC(=O)C4C[C@@H]5CC[C@H]4C5)cccc3c2=O)no1 (stereo partly drawn) [ID 738]
–	–	0 to 25	COc1ccc(CC(=O)Nc2cccc3c(=O)n(-c4cc(C)on4)ccc23)c(OC)c1 [ID 739]
–	–	0 to 25	Cc1cc(-n2ccc3c(NC(=O)c4ccc(F)c(C)c4)cccc3c2=O)no1 [ID 740]
–	–	0 to 25	Cc1cc(-n2ccc3c(NC(=O)c4cccc(C)c4Cl)cccc3c2=O)no1 [ID 743]
–	–	51 to 75	Cc1cc(-n2ccc3c(NC(=O)CCc4cccc(Cl)c4)cccc3c2=O)no1 [ID 746]
–	–	0 to 25	Cc1cc(-n2ccc3c(NC(=O)c4ccc(CC(C)C)cc4)cccc3c2=O)no1 [ID 747]
–	–	0 to 25	CCOC(=O)N1CCC(n2ccc3c(NC(=O)c4ccc(OCC)cc4O)cccc3c2=O)CC1 [ID 748]
–	–	0 to 25	CCOC(=O)N1CCC(n2ccc3c(NC(=O)CCc4cccc(OC)c4)cccc3c2=O)CC1 [ID 753]
–	–	0 to 25	CCOC(=O)N1CCC(n2ccc3c(NC(=O)c4ccc(OC)c(Cl)c4)cccc3c2=O)CC1 [ID 756]
–	–	0 to 25	CCOC(=O)N1CCC(n2ccc3c(NC(=O)CCc4ccc5c(c4)OCO5)cccc3c2=O)CC1 [ID 759]
–	–	0 to 25	CCOC(=O)N1CCC(n2ccc3c(NC(=O)c4ccccc4Cl)cccc3c2=O)CC1 [ID 761]
–	–	0 to 25	CCOC(=O)N1CCC(n2ccc3c(NC(=O)c4ccc(Cl)cc4Cl)cccc3c2=O)CC1 [ID 762]
–	–	0 to 25	CCOC(=O)N1CCC(n2ccc3c(NC(=O)c4cc(Cl)ccc4Cl)cccc3c2=O)CC1 [ID 763]
